Like-named read-outs stand apart in the source and are kept apart here.
Experiment: Biodistribution of SLS MDI formulation: drug concentrations in lung and blood (Table 5)
Assay type: in vivo, male Sprague-Dawley rats
Conditions: rats
Description: A SLS (sodium lauryl sulfate) MDI formulation was tested in the following biodistribution study. One group of 13 male Sprague-Dawley rats, weighing 400 to 500 grams was used. This group of animals was dosed with a sodium lauryl sulfate-based R(+)-N-[3-[5-(4-fluorophenoxy)-2-furanyl]-1-methyl-2-propynyl]-N-hydroxyurea MDI formulation. Blood samples were collected at 0.083, 0.25, 0.5, 1, 2, 4 and 6 hours after dosing. One animal in each group was sacrificed at 0.25, 0.5, 1, 2, 4 and 6 hours after dosing for the determination of drug concentrations in the lung.

reproducibility of delivery (MDI formulations in HFA-134a): reproducibly delivered | fraction of theoretically delivered drug (lung) (SLS MDI, lung, time 0 hr, footnote c): 26.7% | drug concentration recovered from the lung following delivery (SLS-based MDI): about 67 μg/g | concentration at 0.083 h (rat, blood, inhaled or intranasal, SLS MDI 10 mg/mL drug, 0.3% SLS in HFA134a, 0.083 hr (n = 12)): 110 ± 80 ng/mL | concentration at 0.25 h (rat, blood, inhaled or intranasal, SLS MDI 10 mg/mL drug, 0.3% SLS in HFA134a, 0.25 hr (n = 12), read-out: Concentrations of Drug, Blood): 140 ± 70 ng/mL | concentration at 0.5 h (rat, blood, inhaled or intranasal, SLS MDI 10 mg/mL drug, 0.3% SLS in HFA134a, 0.5 hr (n = 9), read-out: Concentrations of Drug, Blood): 180 ± 80 ng/mL | concentration at 1 h (rat, blood, inhaled or intranasal, SLS MDI 10 mg/mL drug, 0.3% SLS in HFA134a, 1.0 hr (n = 8), read-out: Concentrations of Drug, Blood): 180 ± 60 ng/mL | concentration at 2 h (rat, blood, inhaled or intranasal, SLS MDI 10 mg/mL drug, 0.3% SLS in HFA134a, 2.0 hr (n = 6), read-out: Concentrations of Drug, Blood): 150 ± 60 ng/mL | concentration at 4 h (rat, blood, inhaled or intranasal, SLS MDI 10 mg/mL drug, 0.3% SLS in HFA134a, 4.0 hr (n = 4), read-out: Concentrations of Drug, Blood): 200 ± 40 ng/mL | concentration at 6 h (rat, blood, inhaled or intranasal, SLS MDI 10 mg/mL drug, 0.3% SLS in HFA134a, 6.0 hr (n = 2), read-out: Concentrations of Drug, Blood): 280 ± 270 ng/mL | concentration at 0.25 h (rat, lung, inhaled or intranasal, SLS MDI 10 mg/mL drug, 0.3% SLS in HFA134a, 0.25 hr, read-out: Concentrations of Drug, Lung): 14500 ± 6330 ng/g | concentration at 0.5 h (rat, lung, inhaled or intranasal, SLS MDI 10 mg/mL drug, 0.3% SLS in HFA134a, 0.5 hr, read-out: Concentrations of Drug, Lung): 12100 ± 4720 ng/g | concentration at 1 h (rat, lung, inhaled or intranasal, SLS MDI 10 mg/mL drug, 0.3% SLS in HFA134a, 1.0 hr, read-out: Concentrations of Drug, Lung): 13100 ± 15700 ng/g | concentration at 2 h (rat, lung, inhaled or intranasal, SLS MDI 10 mg/mL drug, 0.3% SLS in HFA134a, 2.0 hr, read-out: Concentrations of Drug, Lung): 16600 ± 13000 ng/g | concentration at 4 h (rat, lung, inhaled or intranasal, SLS MDI 10 mg/mL drug, 0.3% SLS in HFA134a, 4.0 hr, read-out: Concentrations of Drug, Lung): 8540 ± 3100 ng/g | concentration at 6 h (rat, lung, inhaled or intranasal, SLS MDI 10 mg/mL drug, 0.3% SLS in HFA134a, 6.0 hr, read-out: Concentrations of Drug, Lung): 9850 ± 2910 ng/g | Concentrations of Drug, Lung (SLS MDI 10 mg/mL drug, 0.3% SLS in HFA134a, 0 hr): 66.74 µg/g
SMILES: C[C@H](C#Cc1ccc(Oc2ccc(F)cc2)o1)N(O)C(N)=O [R(+)-N-[3-[5-(4-fluorophenoxy)-2-furanyl]-1-methyl-2-propynyl]-N-hydroxyurea]

— patent US5676931A, “Aerosol drug formulations for use with non CFC propellants” (Abbott Laboratories, priority 1996, dated 1997)
